US20210008161A1, “METHODS AND COMPOSITIONS FOR IMPROVED HOMOLOGY DIRECTED REPAIR” (CRISPR THERAPEUTICS AG, priority 2019, published 2021)

How the values were obtained:
[1] = test system: CD34-expressing LT-HSPCs derived from human patients with sickle cell disease; assay: SCD gene correction (E6V to E6) by HDR and INDEL frequency by NGS in patient-derived cells
Procedure: The effect of i53 on HDR efficiency was evaluated in cells derived from patients with a sickle cell mutation in the HBB gene. Specifically, CD34-expressing LT-HSPCs derived from human patients with sickle cell disease were edited with SpCas9, R02 guide, and AAV.323 encoding a correction to the E6V mutation in the HBB gene.
Briefly, CD34-expressing LT-HSPCs were derived from plerixafor+GCSF-dual mobilized peripheral blood obtained from a human donor with sickle cell disease. The cells were seeded in Phase I media at a cell density of 2×10^5 cells/mL. Cells were cultured at 37° C. under normoxic conditions (i.e., oxygen 20%).
Editing of cells was performed following two days of in vitro culture. Briefly, 5×10^5 cells were electroporated with RNP containing 20 μg SpCas9 and 20 μg R02 sgRNA, AAV.323 at a dose of 10,000 MOI, and 1 μg mRNA encoding i53. The cells were incubated with AAV.323 for 1 hour prior to electroporation. The cells were edited by electroporation with R02+AAV.323+i53 mRNA and compared to control cells edited with R02 only, R02+AAV.323, or cells exposed to electroporation without RNP or AAV editing components (mock EP).
The efficiency of gene correction by HDR repair at the HBB gene locus was evaluated by NGS assay as described in Example 3. Frequency of INDELs at the R02 cut site was evaluated by NGS analysis. […]

[2] = test system: CD34-expressing LT-HSPCs derived from human patients with sickle cell disease; assay: Erythrocyte functionality: cell-surface markers and enucleation by flow cytometry; assay type: cell-based; settings: day 18 post editing
Procedure: The ability of edited cells to differentiate to functional erythrocytes was assessed by determining expression of erythrocyte-associated cell surface markers and enucleation using flow cytometry on day 18 post editing.
Briefly, 4×10^5 cells were obtained, and half were stained for erythrocyte cell-surface markers and half were used for detection of enucleation. For staining cell-surface markers, the cells were incubated in PBS containing 1% human serum albumin (PBS-A) and an antibody cocktail of anti-CD233 (BRIC6-Band3)-FITC, anti-CD71-PE, anti-CD235a(GlyA)-PE/Cy7, and anti-CD49d (a4)-VioBlue. For detection of enucleation, 2 drops of NucRed nuclear staining reagent was added to 1 mL PBS-A, and 100 μL was added to plated cells. Following incubation, both cell samples were labeled with Sytox Blue solution (1:1000 dilution in PBS-A) for live/dead analysis. Samples were then assessed by flow cytometry.

CD34-expressing LT-HSPCs = assay: Indel formation at HBB locus by TIDE analysis; assay type: cell-based, human
Procedure: Editing efficiency at the HBB locus was evaluated by measuring indel formation by TIDE analysis. […] This group had 1.7-fold reduction in INDEL frequency relative to cells treated with RNP+AAV,

[3] = test system: CD34-expressing LT-HSPCs derived from human patients with sickle cell disease; assay: Hemoglobin expression (HbF, HbA, HbS) by HPLC; assay type: cell-based
Procedure: Hemoglobin expressed by edited cells that were differentiated to erythrocytes was assessed. Hemoglobin A (HbA) is composed of 2 alpha-globin and 2 beta-globin units and is the dominant hemoglobin in adult humans. In human carriers of the HBB E6V mutation, a high proportion of total hemoglobin is hemoglobin S (HbS), which is composed of 2 alpha-globin units and 2 beta-globin units with E6V.
Briefly, on day 18 post-editing, 1×10^6 cells were harvested, centrifuged, and washed with PBS. The cells were prepared for HPLC analysis. Hemoglobin variants were quantified in cell samples using reverse-phase HPLC chromatography and gradient elution. […] Thus, high levels of HDR achieved with i53 contribute to normalization of hemoglobin expression products.

[4] = test system: human LT-HSPCs administered to cKit mice; assay: Indel formation at HBB locus in mouse bone marrow by TIDE analysis; assay type: in vivo; settings: 16 weeks post engraftment
Procedure: (§1) NHEJ editing of the HBB locus was also evaluated in mouse bone marrow collected at 16 weeks post engraftment. Indel formation at the site of Cas9/gRNA cutting was evaluated by TIDE analysis in bone marrow samples and compared to indel formation of LT-HSPCs prior to administration.
as §1, with “administration. Regardless of the method used to edit the LT-HSPCs, indel formation was similar at 16 weeks post-engraftment to the level present prior to administration (FIG. 27).” for “administration.”

[5] = day 18 post-editing, compared to mock EP control cells, FIG. 34A

i53: polypeptide inhibitor of 53BP1 (SEQ ID NO: 70), introduced as an mRNA-encoded protein (ORF SEQ ID NO: 69)
incorporation of the E6V→E6 gene correction ([1]; R02 RNP + AAV.323 + 1 μg i53 mRNA, FIG. 32A, 34B): 66%
fold lower frequency of INDELs at the R02 cut site ([1]; compared to cells edited with RNP+AAV.323 alone, FIG. 32B): 1.9 fold
cell population having enucleation ([2]; comparable to mock EP control cells): > 30%
cell population CD71−GlyA+ erythrocytes ([2]; similar to mock EP control cells): > 30%
risk of indel formation within the target gene locus (CD34-expressing LT-HSPCs; CD34+ HSCs contacted with 53BP1 polypeptide inhibitor, summary statement): less than 30%
level of indel formation (CD34-expressing LT-HSPCs; RNP+AAV in the presence of i53, FIG. 11): lowest
HbA levels [3, 5]: increased
HbS levels [3, 5]: dramatically reduced
decrease in HbS levels ([3]; relative to mock EP control cells, FIG. 34B): 90%
level of indel formation in bone marrow ([4]; Example 5, FIG. 20): lowest
level of indel formation in bone marrow ([4]; Example 7, FIG. 27): lowest
